{"source": "paper PMC12612596", "about": "“Real‐time FRET assay for monitoring detyrosination by TMCP1 and VASH2” (Protein Science : A Publication of the Protein Society, 2025)", "key": {"[1]": {"molecular_target": "Tubulin MetalloCarboxyPeptidase 1 (TMCP1) (UniProt Q68EN5)"}, "TMCP1 [2]": {"molecular_target": "T1, TMCP1 (Homo sapiens, UniProt Q68EN5)", "T1 construct": "TMCP1 open Reading Frame (ORF) was cloned into pET28A+; 6His (N); made in house; host or cells: Escherichia coli BL21 Star (DE3)", "T1 sequence (Q68EN5 1-471)": "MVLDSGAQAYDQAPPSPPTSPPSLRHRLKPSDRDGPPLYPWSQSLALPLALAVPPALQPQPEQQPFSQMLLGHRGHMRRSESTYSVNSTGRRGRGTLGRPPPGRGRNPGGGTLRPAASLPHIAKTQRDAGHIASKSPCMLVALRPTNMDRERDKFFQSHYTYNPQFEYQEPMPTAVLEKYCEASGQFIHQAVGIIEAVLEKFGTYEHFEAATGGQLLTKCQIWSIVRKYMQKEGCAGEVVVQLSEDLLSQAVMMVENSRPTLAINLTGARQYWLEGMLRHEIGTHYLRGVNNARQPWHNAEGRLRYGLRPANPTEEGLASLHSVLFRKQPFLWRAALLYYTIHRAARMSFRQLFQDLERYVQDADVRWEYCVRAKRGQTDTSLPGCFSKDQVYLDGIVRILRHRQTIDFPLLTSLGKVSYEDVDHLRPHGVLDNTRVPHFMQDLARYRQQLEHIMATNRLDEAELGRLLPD", "assay": "TMCP1 FRET enzyme activity assay under altered conditions (inhibitors, salts, metal ions, buffers, competition; substrate FS2)", "assay_type": "biochemical", "conditions": "for Effect of divalent metal ion on TMCP1 activity (in words): TMCP1 pre-treated with 50 μM EDTA 10 min at room temperature, metal ion >50 μM, 30 min at 37 °C, then FS2", "experimental": "Protein production and purification steps were previously described (Nicot et al., [2023]). Briefly, TMCP1 open Reading Frame (ORF) was cloned into pET28A+ to produce 6His N‐terminally tagged TMCP1. Transformed Escherichia coli strain BL21 Star (DE3) was grown at 37°C until the optical density (OD600) reached 0.6; then the culture was induced with 0.5 mM isopropyl‐β‐d‐thiogalactoside (IPTG) overnight at 18°C. Cells were pelleted for 15 min at 5000 g and resuspended in a 50 mM Tris–HCl buffer (pH 7.4), 500 mM NaCl, 2 mM TCEP, 0.1% Tween. Cell lysis was performed by sonication followed by centrifugation at 20,000×g for 30 min at 4°C. The supernatant was incubated with pre‐washed Ni‐NTA agarose beads (Qiagen) at 4°C for 2 h. Beads were washed extensively in lysis buffer supplemented with 20 mM imidazole and 0.1% Triton. Elutions were performed in a 50 mM Tris–HCl buffer (pH 7.5), 500 mM NaCl, 250 mM imidazole and 1 mM TCEP. The eluted fractions containing proteins were dialyzed overnight at 4°C against 50 mM Tris–HCl buffer (pH 7.5), 300 mM NaCl, 1 mM TCEP using 10 kDa dialysis cassettes. The dialyzed samples were then concentrated and buffer‐exchanged in a 50 mM Tris–HCl buffer (pH 7.5), 200 mM NaCl, 1 mM TCEP using 10 kDa Amicon centrifugal filter units (Amicon Ultra‐4 Merck Millipore). TMCP1 was then snap frozen and stored at −80°C in aliquots.\nFor each experiment, a fresh stock solution of the fluorescent peptide substrates (5 mM in DMSO), was prepared and protected from light. […] VASH2/SVPB was used at a final concentration of 235 nM, obtained by diluting a 94 μM stock solution (stored at −80°C) at a 1:400 ratio. Enzymatic kinetics experiments were performed in triplicate by measuring the fluorescence of the FRET peptide substrates cleaved by the two enzymes. The cleavage releases a nitro‐tyrosine residue, which acts as a quencher. Its removal leads to an increase of fluorescence, which was quantified fluorometrically (Ex/Em = 320/420 nm) using a SpectraMax i3x (Molecular Devices) microplate reader.\nData were analyzed using GraphPad Prism, with a dedicated curve fitting applied. A Gaussian bell‐shaped curve was used for the optimal pH study, and dose–response inhibition curves were generated by plotting the concentration of NaCl, EDTA, NS3, etc., against the normalized initial velocity (Vi) corresponding to enzyme activity. Data were normalized so that the curve ranged from 100 to 0% activity.\nOptimal pH was established using a 50 mM Tris–HCl buffer, with the pH adjusted to the desired value (ranging 4–11) using 0.1 M NaOH or HCl solutions. For the ionic strength experiments, a 500 mM NaCl stock solution in a 50 mM Tris–HCl buffer was used as a starting point for serial dilution (500–0 mM). For EDTA analysis, a 10 mM stock solution was prepared and fully solubilized by vigorous stirring at 80°C. EDTA (0.004 to 400 μM) was then incubated with TMCP1, for 30 min at 37°C before adding the fluorescent substrate and starting the fluorescence measurement. Subsequently, an identical experiment was conducted using 2‐fold serial dilutions to refine the curve around the previously determined IC50.\nFor metal ion dependency assays, the enzyme was first incubated with 50 μM of EDTA for 10 min at room temperature. Then, serial dilutions were performed from 100 mM stock solutions of each metal ion (ZnCl₂, CoCl₂, and MnCl₂.).\nFinally, the competition assay was performed similarly, except that the 96‐well plate was kept on ice during the serial dilution of the NS3 substrate and its addition into the wells."}, "TMCP1 [3]": {"molecular_target": "T1, TMCP1", "conditions": "tubulin as substrate; ref Nicot et al., 2023; cited from earlier work", "experimental": "In addition, considering that TMCP1 is a metallocarboxypeptidase, its metal ion dependency was also assessed (Figure 4e). First, the metal ions present in the active site of TMCP1 were chelated with 50 μM EDTA. Subsequently, ZnCl₂, MnCl₂, or CoCl₂ were added at varying concentrations (>50 μM) to determine their impact on the restoration of enzymatic activity."}, "VASH2/SVBP": {"molecular_target": "T2, VASH2/SVBP (Homo sapiens, UniProt Q86V25+Q8N300)", "T2 construct": "His (N); T7 (N); made in house; host or cells: Escherichia coli BL21 Star (DE3)", "T2 sequence (Q86V25 whole entry, species assumed)": "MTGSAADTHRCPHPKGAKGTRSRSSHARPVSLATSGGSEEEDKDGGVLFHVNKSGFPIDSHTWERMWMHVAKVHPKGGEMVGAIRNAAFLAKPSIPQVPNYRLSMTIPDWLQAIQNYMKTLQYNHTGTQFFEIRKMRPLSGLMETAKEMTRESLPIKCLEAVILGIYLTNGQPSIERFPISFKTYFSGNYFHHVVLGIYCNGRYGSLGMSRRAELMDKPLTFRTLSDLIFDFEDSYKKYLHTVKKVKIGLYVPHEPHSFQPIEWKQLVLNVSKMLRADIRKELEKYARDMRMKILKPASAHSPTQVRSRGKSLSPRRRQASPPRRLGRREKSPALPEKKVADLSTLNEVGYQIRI", "T2 sequence (Q8N300 whole entry partner, species assumed)": "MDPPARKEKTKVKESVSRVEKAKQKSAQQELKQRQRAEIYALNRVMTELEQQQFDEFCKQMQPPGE", "assay": "VASH2 FRET inhibition assay (substrate FS2)", "assay_type": "biochemical", "procedure": "Serial dilutions were prepared prior to enzyme addition (235 nM final concentration) to minimize time‐dependent inhibition effects and to avoid premature covalent modification of the enzyme during the dilution steps. […]"}, "VASH1": {"tested_on": "VASH1", "parameters": "method as in Feral et al., 2025", "conditions": "ref Feral et al., 2025; cited from earlier work"}, "VASH1/SVBP": {"tested_on": "VASH1/SVBP", "assay": "LC-MS analysis of NS3 cleavage by VASH1/SVBP", "assay_type": "biochemical"}}, "note": "Read-outs that look alike come from different tables or passages of the source. Where a SMILES comes first, the peptide text is derived from it.", "data": [{"molecule": "NS3 (natural substrate 3, non-fluorescent peptide of the last 12 amino acids of the α-tubulin C-terminal tail)", "values": [{"measurement": "IC50 of the competing non-fluorescent peptide NS3 on cleavage of the fluorogenic substrate FS2 (100 μM) by TMCP1, real-time FRET enzymatic assay", "setting": "[1]", "result": 62, "unit": "µM"}]}, {"molecule": "[Cl-].[Cl-].[Co+2]", "note": "[CoCl₂]", "values": [{"measurement": "Effect of divalent metal ion on TMCP1 activity (in words)", "setting": "TMCP1 [2]; n = 3", "result": "highly effective not only at restoring but even increasing TMCP1 activity, although its effectiveness was reduced at higher concentrations"}, {"measurement": "Effect of divalent metal ion on TMCP1 activity (in words)", "setting": "TMCP1 [2]; n = 3, listed as Co^2+", "result": "enhance its activity in a concentration‐dependent manner"}, {"measurement": "Effect of metal ion on TMCP1 (immunoblot, in words)", "setting": "TMCP1 [3]", "result": "strongly activated"}]}, {"molecule": "CCOC(=O)C1OC1C(=O)N[C@@H](Cc1ccc(O)cc1)C(=O)O", "note": "(some centres unmarked) [EpoY]", "values": [{"measurement": "IC50", "setting": "VASH2/SVBP", "result": 0.42, "unit": "µM"}, {"measurement": "VASH1 inhibition (in words)", "setting": "VASH1", "result": "blocking VASH1"}]}, {"molecule": "CC(=O)N[C@H](C(=O)N[C@@H](CCC(=O)O)C(=O)NCC(=O)N[C@@H](CCC(=O)O)C(=O)NCC(=O)N[C@@H](CCC(=O)O)C(=O)N[C@@H](CCC(=O)O)C(=O)N[C@@H](CCC(=O)O)C(=O)NCC(=O)N[C@@H](CCC(=O)O)C(=O)N[C@@H](CCC(=O)O)C(=O)N[C@@H](Cc1ccc(O)cc1)C(=O)O)C(C)C", "note": "[NS3] (Ac-VEGEGEEEGEEY-OH)", "values": [{"measurement": "Affinity relative to fluorescent peptide (in words)", "setting": "TMCP1 [2]; NS3 vs FS2 (100 μM) in competition assay", "result": "slightly higher affinity"}, {"measurement": "IC50", "setting": "TMCP1 [2]; read-out: IC50, TMCP1 competition by NS3", "result": "~62", "unit": "µM"}, {"measurement": "Cleavage of NS3 by VASH1 by LC-MS (in words)", "setting": "VASH1/SVBP", "result": "no activity was detected"}]}, {"molecule": "[Cl-].[Cl-].[Mg+2]", "note": "[MgCl₂]", "values": [{"measurement": "TMCP1 activity with MgCl₂ (in words)", "setting": "TMCP1 [2]; 80 mM PIPES with or without 1 mM MgCl₂, compared to 50 mM Tris-HCl", "result": "enzyme activity comparable to those obtained in 50 mM Tris–HCl"}]}, {"molecule": "O=C(O)CN(CCN(CC(=O)O)CC(=O)O)CC(=O)O", "note": "[EDTA, reference compound]", "values": [{"measurement": "IC50", "setting": "TMCP1 [2]", "result": 2.15, "unit": "µM"}]}, {"molecule": "[Cl-].[Na+]", "note": "[NaCl]", "values": [{"measurement": "Reduction in TMCP1 activity by NaCl", "setting": "TMCP1 [2]; NaCl around 100 mM in 50 mM Tris-HCl, FS2, n = 3", "result": 50, "unit": "%"}, {"measurement": "Inhibition of TMCP1 by NaCl (in words)", "setting": "TMCP1 [2]; NaCl concentrations above 200 mM, n = 3", "result": "almost complete inhibition"}]}, {"molecule": "[Cl-].[Cl-].[Zn+2]", "note": "[ZnCl₂]", "values": [{"measurement": "Effect of divalent metal ion on TMCP1 activity (in words)", "setting": "TMCP1 [2]; n = 3", "result": "did not restore the enzymatic activity"}, {"measurement": "Effect of divalent metal ion on TMCP1 activity (in words)", "setting": "TMCP1 [2]; n = 3, listed as Zn^2+", "result": "inhibits the enzyme"}, {"measurement": "Effect of metal ion on TMCP1 (immunoblot, in words)", "setting": "TMCP1 [3]", "result": "inhibited"}]}, {"molecule": "O=C(O)CN(CCOCCOCCN(CC(=O)O)CC(=O)O)CC(=O)O", "note": "[EGTA, reference compound]", "values": [{"measurement": "TMCP1 activity with EGTA (in words)", "setting": "TMCP1 [2]; 1 mM EGTA in Tris-HCl buffer", "result": "complete loss of enzymatic activity"}]}, {"molecule": "[Cl][Mn][Cl]", "note": "[MnCl₂]", "values": [{"measurement": "Effect of divalent metal ion on TMCP1 activity (in words)", "setting": "TMCP1 [2]; n = 3", "result": "also restored the activity but unlike CoCl₂, it did so in a concentration‐dependent manner"}, {"measurement": "Effect of divalent metal ion on TMCP1 activity (in words)", "setting": "TMCP1 [2]; n = 3, listed as Mn^2+", "result": "enhance its activity in a concentration‐dependent manner"}, {"measurement": "Effect of metal ion on TMCP1 (immunoblot, in words)", "setting": "TMCP1 [3]", "result": "strongly activated"}]}]}
